One series deals with T1, CYP2C8 (Homo sapiens, UniProt P10632).
T1 construct: purchased Life Technologies PV6138; host or cells: Baculosomes
T1 sequence (P10632 1-490): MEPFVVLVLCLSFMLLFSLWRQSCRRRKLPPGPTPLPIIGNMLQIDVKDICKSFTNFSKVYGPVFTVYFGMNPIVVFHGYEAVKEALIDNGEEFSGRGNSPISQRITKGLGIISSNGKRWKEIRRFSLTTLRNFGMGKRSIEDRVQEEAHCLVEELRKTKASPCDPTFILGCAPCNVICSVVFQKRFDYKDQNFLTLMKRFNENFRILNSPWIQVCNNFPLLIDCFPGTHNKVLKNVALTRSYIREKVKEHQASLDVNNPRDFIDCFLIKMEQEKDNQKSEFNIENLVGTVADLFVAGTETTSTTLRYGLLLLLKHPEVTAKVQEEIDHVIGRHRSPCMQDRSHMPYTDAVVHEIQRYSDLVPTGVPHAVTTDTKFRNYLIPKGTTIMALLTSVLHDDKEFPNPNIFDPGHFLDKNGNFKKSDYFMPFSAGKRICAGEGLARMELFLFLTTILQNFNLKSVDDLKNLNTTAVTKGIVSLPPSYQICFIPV
Description: CYP450 inhibition, fluorescent probe substrate. In kind it is in vitro ADME. The protocol: (§1) Methods: Recombinant human CYP450 isoenzymes were used to metabolize pro-fluorescent probe substrates to fluorescent products. IC50 values determined from the effect of test compounds on the metabolism of these probe substrates were then used to determine inhibitory potency against CYP450 isoforms. The chemical reagents included:
(§2) The test system was based on a three-step procedure with a “mix and read” format, where reaction and reading were performed at 37° C. The assays described herein measure in vitro inhibitory effects (pIC50) of compounds on the human P450 isoforms (1A2, 2B6, 2C8, 2C9, 2C19, 2D6, 3A4) expressed in recombinant microsomes. Pro-fluorescent probe substrates were metabolized to fluorescent products by the enzymes. Fluorescence was measured in kinetic mode (1 read/minutes for 10 minutes), and the fluorescence rate was calculated.
(§3) Inhibition of the fluorescent signal resulting from P450 activation indicated inhibitory activity and facilitated calculation of the compound pIC50. A quality check was included in each compound plate, wherein the signal window was monitored by performing Z′ calculations ([…] ) and the antagonist potency of internal standards was within the pIC50±2SD range. Concentration response curves (CRCs) of compounds were run on two different test occasions (n 2) by preparing serial dilutions from the same compound stock solution.
(§4) To prepare the compound plate, test compounds serial dilutions 1 to 3 were performed from a 10 mM stock solution in DMSO by Biomek FX to generate 10 point CRC with the highest concentrations in columns 3 and 13.
(§5) 100% DMSO was placed in columns 1 and 2 and used for assay low controls. CYP inhibitor (10 mM miconazole solution in DMSO) was placed in columns 23 and 24 and served as an assay high controls. 1 μL copy plates were then stamped into V-bottom drug plates at a concentration that is 200 fold the final assay concentration. The copy plates were diluted prior to the experiment with assay buffer to reach 4 times the final assay concentration (2% w/v DMSO).
(§6) A reference compound (e.g., miconazole) was included in each compound plate in row A, column 3 and 13. The reference compound was diluted and stamped together with test compounds. The final concentrations of the 10 point CRCs of test compounds in the assay plate were 5.00E-05; 1.67E-05; 5.56E-06; 1.85E-06; 6.17E-07; 2.06E-07; 6.86E-08; 2.29E-08; 7.62E-09 and 2.54E-09, respectively. All solutions were prepared immediately before the assay.
(§7) The CYP3A4 and CYP2C8 were assayed using the Vivid CYP3A4 Baculosomes, CYP2C8 Baculosomes and Vivid DBOMF Substrate (Life Technologies, cat. P2377, PV6138 and P2974 respectively), while 2B6 is tested by Vivid CYP2B6 Baculosomes and Vivid BOMCC Substrate (Life Technologies, cat. P3028 and P2975). Test compounds were prepared as specified above.
(§8) The assay plate was prepared by preparing pre-mix by diluting P450 Baculosomes Plus Reagent and Vivid Regeneration System in 1× Vivid CYP450 Reaction Buffer (Potassium Phosphate Buffer, 100 mM, pH 8.0). Briefly, 8 μL/ml of P450 Baculosomes Plus Reagent and 16 μL/ml of Vivid Regeneration System were added to achieve the appropriate final concentrations and then mixed by inversion. 30 μL of pre-mix were dispensed into each well of a black, 384-well plate.
(§9) Next, 10 μL/well from the compound plate was added and incubated for 10 minutes at 37° C. on a plate shaker, while a mixture of Vivid Substrate and Vivid NADP+ in Vivid CYP450 Reaction Buffer was prepared. The reaction was initiated by adding 10 μL/well of the Vivid Substrate and NADP+ mixture, before transferring the plate into the fluorescent plate reader (immediately, within 2 minutes), and fluorescence was monitored every minute for 10 minutes according to the specific protocol.
(§10) Regarding data analysis, inhibition is expressed as a percentage. […] Curve fitting and pIC50 estimations are carried out using a four-parameter logistic model in Morphit.

In a further series the target is T2, CYP2B6 (Homo sapiens, UniProt P20813).
T2 construct: purchased Life Technologies P3028; host or cells: Baculosomes
T2 sequence (P20813 1-491): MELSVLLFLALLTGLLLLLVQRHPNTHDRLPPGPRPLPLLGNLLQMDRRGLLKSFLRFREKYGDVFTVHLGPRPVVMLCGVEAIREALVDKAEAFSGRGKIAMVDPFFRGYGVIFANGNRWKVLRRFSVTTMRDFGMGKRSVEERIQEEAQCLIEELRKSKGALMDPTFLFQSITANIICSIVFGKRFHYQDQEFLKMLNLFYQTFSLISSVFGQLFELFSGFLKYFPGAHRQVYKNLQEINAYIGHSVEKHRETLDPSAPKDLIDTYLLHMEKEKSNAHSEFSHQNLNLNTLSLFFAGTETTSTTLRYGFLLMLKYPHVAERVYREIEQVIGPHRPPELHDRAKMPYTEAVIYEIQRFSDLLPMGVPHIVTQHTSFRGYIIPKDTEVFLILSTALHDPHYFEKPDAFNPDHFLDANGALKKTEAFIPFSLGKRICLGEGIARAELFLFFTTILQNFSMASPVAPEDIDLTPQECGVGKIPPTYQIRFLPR
Description: CYP450 inhibition, fluorescent probe substrate. In kind it is in vitro ADME. The protocol: as §1, §2, §3, §4, §5, §6, §7, §8, §9, §10

Setting [1] is: recombinant human isoenzyme, n=2, read-out: Inhibition of CYP2C8, IC50.
Setting [2] is: recombinant human isoenzyme, n=2, read-out: Inhibition of CYP2B6, IC50.

Like-named read-outs stand apart in the source and are kept apart here.

For the molecule `COC(=O)c1cc2c(cc1OC)CC(N)C2` (stereo not drawn) [CMP-401], the IC50 at CYP2C8 (setting [1]) and at CYP2B6 (setting [2]) was over 50 µM throughout.
On to `COC(=O)COc1ccc2c(c1)CC(N)C2` (stereo not drawn) [CMP-402], for which the IC50 on CYP2C8 (setting [1]) and at CYP2B6 (setting [2]) was over 50 µM throughout.
`COC(=O)c1ccc2c(c1)CC(N)C2` (stereo not drawn) [CMP-405, 2-aminoindane-5-methylcarboxylate]: the IC50 on CYP2C8 (setting [1]) and on CYP2B6 (setting [2]) was over 50 µM each time.
On to `CNC(C)Cc1ccc2c(c1)OCO2` (stereo not drawn) [MDMA], for which the IC50 at CYP2C8 (setting [1]) and at CYP2B6 (setting [2]) was over 50 µM each time.
Take `COc1ccc2c(c1)CC(N)C2` (stereo not drawn) [MEAI, 5-methoxy-2-aminoindane]: the IC50 at CYP2C8 and against CYP2B6 was over 50 µM in each case.
For the molecule `COc1cc2c(cc1C)CC(N)C2` (stereo not drawn) [MMAI, 5-methoxy-6-methyl-2-aminoindane], the IC50 against CYP2C8 and on CYP2B6 was over 50 µM each time.

As usually defined, the IC50 is the concentration needed to halve the response being measured.

Values taken from patent US20260159474A1, “Aminoindane Compounds and Compositions and Methods of Their Therapeutic Use” (Solvonis Therapeutics Ireland Holdings Limited, priority 2021, published 2026).
